We go through three molecules from PMC13197777, “Distinct 2-phenylimidazo[1,2-a]pyridine derivatives that inhibit breast cancer cell proliferation identified as AHR ligands” (iScience, 2026).

pEC50, pIC50: −log10 of the molar value. Read-outs that look alike come from different tables or passages of the source.

In assay [1] the test system is MCF-7 luc D538G. The assay is described as follows: Clonogenic assay (clonal expansion), MCF-7 cells with D538G ER mutation. It counts as cell-based. Conditions: Homo sapiens, MCF7, 336 h. The protocol:
(§1) Cells were seeded at a density of 1–2×10^3 cells/well in a 6-well plate and treated with increasing concentrations of the X compounds for 14–21 days. Medium and compounds were renewed every 7 days. The experiments were terminated by fixing the cells with methanol and the colonies formed were visualized after staining with 0.5% crystal violet (w/v) in 20% methanol (v/v). Plates were photographed and the area covered by the colonies was calculated using the ColonyArea Plugin for Fiji (RRID:SCR_003070).[20]

The subject of assay [2] is MCF-7 luc. As to the kind of experiment: Clonogenic assay (clonal expansion), MCF-7 cells expressing wild-type ER. It counts as cell-based. The conditions noted are these: Homo sapiens, MCF7, 336 h. The protocol: as §1
For assay [3], the system named is MCF-7 cells. As to the kind of experiment: Clonogenic assay in MCF-7 cells with AHR antagonist CH223191. Conditions: MCF-7, 10 nM compound, 1 μM CH223191, 14 days. In kind it is cell-based, human. The protocol:
as §1

Assay [4] addresses T1, hERα (Homo sapiens, UniProt P03372).
T1 construct: expressed in transfected cells; host or cells: HeLa (HELN hERα)
T1 sequence (P03372 1-595): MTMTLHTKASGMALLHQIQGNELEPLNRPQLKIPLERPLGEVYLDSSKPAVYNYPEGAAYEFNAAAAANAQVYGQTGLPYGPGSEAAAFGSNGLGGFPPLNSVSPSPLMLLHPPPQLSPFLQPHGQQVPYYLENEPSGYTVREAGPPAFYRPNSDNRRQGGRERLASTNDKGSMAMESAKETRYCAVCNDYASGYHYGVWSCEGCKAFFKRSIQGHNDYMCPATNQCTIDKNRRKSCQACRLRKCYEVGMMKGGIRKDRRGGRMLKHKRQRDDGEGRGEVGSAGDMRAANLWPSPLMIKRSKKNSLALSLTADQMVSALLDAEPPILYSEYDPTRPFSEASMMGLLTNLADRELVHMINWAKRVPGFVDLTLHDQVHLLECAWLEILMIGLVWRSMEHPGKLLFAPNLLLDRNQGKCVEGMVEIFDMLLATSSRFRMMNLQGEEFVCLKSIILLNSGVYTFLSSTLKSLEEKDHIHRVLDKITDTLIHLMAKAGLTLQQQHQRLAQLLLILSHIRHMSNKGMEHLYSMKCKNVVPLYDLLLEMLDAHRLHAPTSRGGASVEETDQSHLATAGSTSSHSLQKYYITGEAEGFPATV
As to the kind of experiment: ER/ERE luciferase reporter assay in HELN hERα cells. In kind it is cell-based. Conditions: 10 nM–10 μM compound, with E2, 24 h. An excerpt:
(§2) To characterize the chemical induced AHR activity, we used the already established HAHLH reporter cell lines obtained by stably expression of HeLa cells with the dioxin-responsive gene XRE(TnGCGTG)3-tata-luciferase-Luc-hygromycin plasmid.[29] The reporter HELN hERα cell line was obtained by transfecting human HeLa cells with the ERE-responsive gene ERE-βGlobin-luciferase-Luc-neomycin and the pSG5-hERα-puromycin plasmids as previously described.[59] To determine the action of the chemical on AHR and hERα activity, cells were seeded at a density of 50,000 cells per well in 96-well white opaque tissue culture plates (Greiner CellStar) in 150 μL of Dulbecco’s Modified Eagle Medium: Nutrient Mixture F-12 (DMEM/F- 12) without phenol red and 1 g/L glucose and supplemented with 5% stripped fetal bovine serum, 100 units/mL of penicillin, 100 μg/mL of streptomycin (test medium). Twenty-four hours later, chemicals to be tested were added at 4x concentration in culture medium, and cells were incubated at 37 °C for 8 h (HAhLH cells) or 24 h (HELN hERα cells). At the end of the incubation period, culture medium was replaced with test medium containing 0.3 mM luciferin and luciferase activity was measured for 2 s in intact living cells using a MicroBeta Wallac luminometer (PerkinElmer). Tests were performed in quadruplicate at 4x concentration in the same medium in at least 4 independent experiments. Results were expressed as % of the maximal luciferase activity. […] Effective concentration (ECs) for a given compound, EC50 is defined as the concentration inducing 50% of its maximal effect. The EC50 values were calculated including the adjustment for the basal activity of the cell line.

For assay [5], the target named is T2, AHR (Homo sapiens, UniProt P35869).
T2 construct: endogenous in cells; host or cells: HAHLH (HeLa with XRE-luciferase reporter)
T2 sequence (P35869 11-848): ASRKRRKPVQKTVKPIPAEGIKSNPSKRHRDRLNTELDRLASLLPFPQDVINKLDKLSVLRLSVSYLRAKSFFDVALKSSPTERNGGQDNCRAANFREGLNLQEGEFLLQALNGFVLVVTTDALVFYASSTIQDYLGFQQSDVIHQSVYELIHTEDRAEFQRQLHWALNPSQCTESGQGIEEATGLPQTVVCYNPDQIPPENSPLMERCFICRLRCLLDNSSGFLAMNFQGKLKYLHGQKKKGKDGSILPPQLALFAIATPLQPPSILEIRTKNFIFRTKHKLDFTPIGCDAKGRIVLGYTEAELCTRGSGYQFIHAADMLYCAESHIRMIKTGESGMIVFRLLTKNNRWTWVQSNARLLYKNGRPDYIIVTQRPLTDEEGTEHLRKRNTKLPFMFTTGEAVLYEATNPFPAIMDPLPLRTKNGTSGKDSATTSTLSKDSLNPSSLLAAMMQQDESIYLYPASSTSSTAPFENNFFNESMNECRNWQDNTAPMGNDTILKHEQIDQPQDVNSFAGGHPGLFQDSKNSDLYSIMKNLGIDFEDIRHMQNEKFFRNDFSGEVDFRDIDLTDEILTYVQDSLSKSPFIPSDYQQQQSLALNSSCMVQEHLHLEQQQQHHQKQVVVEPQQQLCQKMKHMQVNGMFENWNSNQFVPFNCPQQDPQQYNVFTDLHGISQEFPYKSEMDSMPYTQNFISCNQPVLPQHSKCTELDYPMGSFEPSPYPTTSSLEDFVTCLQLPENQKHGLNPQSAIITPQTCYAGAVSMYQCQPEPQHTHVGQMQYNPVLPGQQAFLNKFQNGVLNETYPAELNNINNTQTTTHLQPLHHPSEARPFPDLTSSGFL
As to the kind of experiment: AHR luciferase reporter assay in HAHLH cells. It counts as cell-based. Conditions: 8 h; for pEC50: % of maximal luciferase activity with dioxin 10 nM, read-out: EC50 AHR transactivation.
Excerpt: as §2
(In general: Reporter assays use an easily measured gene product as a stand-in for the process of interest.)

Assay [6] concerns ER+ MCF-7, ZR75–1, and T47D breast cancer cells. Also on record: method as in PMID 37520743. Conditions: previously identified ref 17; cited from earlier work.
In assay [7] the target is T3, ERα full-length (Homo sapiens, UniProt P03372).
T3 construct: 34 nM ERα full-length and 1.4 nM Fluormone EL Red were incubated; purchased ThermoFisher A15884
T3 sequence (P03372 1-595): T1 sequence (P03372 1-595)
As to the kind of experiment: PolarScreen ERα Competitor Assay (fluorescence polarization). In kind it is binding. The method, then:
The PolarScreen Estrogen Receptor-Alpha Competitor Assay, Red (ThermoFisher, A15884) was used to determine if the X compounds bind to ERα. The assay was performed according to the manufacturer’s protocol.
For orientation: In fluorescence polarisation assays a small probe gives low polarisation when free and higher when bound to something large.

The mark [8] stands for this setting: read-out: IC50 clonal expansion, Figure 1B, MCF-7 luc D538G, absence of E2, 14 days.
Setting [9] is: read-out: IC50 clonal expansion, Figure 1C, MCF-7 luc D538G + 10 nM E2, 14 days.
[10] abbreviates: Figure 1B, MCF-7 luc, absence of E2, 14 days.
The mark [11] stands for this setting: Figure 1C, MCF-7 luc + 10 nM E2, 14 days.

For the molecule `Fc1ccc(-c2cn3cc(C(F)(F)F)cc(Cl)c3n2)cc1` [X15695], the pIC50 in assay [1] (setting [8]) was 7.94; in assay [1] (setting [9]) it was 8.27; in assay [1] (read-out: IC50 clonal expansion, Figure 1D, MCF-7 luc D538G, absence of E2, 14 days), 7.94; in assay [1] (read-out: IC50 clonal expansion, Figure 1E, MCF-7 luc D538G + 10 nM E2, 14 days), 8.27; in assay [2] (setting [10]), 8.61; in assay [2] (setting [11]) it was 8.10. Also, the pIC50 was 8.61 in assay [2] (Figure 1D, MCF-7 luc, absence of E2, 14 days) and 8.10 in assay [2] (Figure 1E, MCF-7 luc + 10 nM E2, 14 days). Also, the “inhibition of colony expansion in the presence of AHR antagonist CH223191” value (from here on “inhibition of colony expansion”) in assay [3] was “clearly abrogated by the AHR antagonist CH223191”. For the same molecule, in assay [4], the “transcription activity of ERα (reporter)” value was “reduced”. Further, the “AHR transcriptional activity (reporter), in words” value (“AHR transcriptional activity” for short) in assay [5] is “potency that surpassed that of the classical AHR ligand dioxin”. In addition, the pEC50 in assay [5] was 9.85. The “Inhibition of Proliferation” value in assay [6] was “Yes”. Moreover, the “displacement of the Fluormone tracer from ERα” value (shortened to “displacement”) in assay [7] is listed as “did not”.

As for `Cc1cc(Cl)c2nc(-c3ccc(F)cc3)cn2c1` [X19724], the pIC50 is 6.49 in assay [1] (setting [8]), 7.50 in assay [1] (setting [9]), 8.13 in assay [2] (setting [10]) and 7.82 in assay [2] (setting [11]). The “inhibition of colony expansion” value in assay [3] is reported as “to a lesser extent”. The “transcription activity of ERα (reporter)” value in assay [4] is “reduced”. The “AHR transcriptional activity” value in assay [5] was “only modest enhancement”. In addition, the pEC50 in assay [5] was 8.86. In assay [6], the “Inhibition of Proliferation” value is on record as “Yes”. Besides, in assay [7], the “displacement” value is recorded as “did not”.

In the case of `Cc1cc(Cl)c2nc(-c3ccccc3)cn2c1` [X19728], the pIC50 in assay [1] (setting [8]) is 7.13; in assay [1] (setting [9]), 7.32; in assay [2] (setting [11]), 7.99. Further, the “inhibition of colony expansion” value in assay [3] is given as “no effect on colony formation”. In assay [4], the “transcription activity of ERα (reporter)” value is on record as “reduced”. Further, the “AHR transcriptional activity” value in assay [5] is given as “only modest enhancement”. Besides, the pEC50 in assay [5] was 8.40. In assay [6], the “Inhibition of Proliferation” value is “Yes”. Besides, the “displacement” value in assay [7] is reported as “did not”.

Broadly, the pIC50 is the negative decadic logarithm of the IC50, by convention in mol/L. As usually defined, the pEC50 is the negative decadic logarithm of the EC50, by convention in mol/L.
